From US20200223889A1, “Bicyclic Compounds Capable of Binding to Melanocortin 4 Receptor” (Novo Nordisk A/S, priority 2017, published 2020)
Where two headings read alike, the source gives them in different places. Positions of bridges follow the written chain, without caps; N, C: chain ends. Non-standard residues stand in square brackets, D forms with d. Residues, ends and D or L forms follow the SMILES beside them. Ser(ΨH,HPro) = O=C(O)[C@@H]1COCN1; Hyp = O=C(O)[C@@H]1C[C@@H](O)CN1; hCit = NC(=O)NCCCC[C@H](N)C(=O)O; Orn = NCCC[C@H](N)C(=O)O; Thz = O=C(O)[C@@H]1CSCN1

Tests used:
human MC4R [1] = target: T1, human MC4R (Homo sapiens, UniProt P32245); assay: Functional cAMP assay (CisBio HTRF) in BHK cells expressing human MC4R; type: cell-based; settings: for MC1R/MC4R cAMP EC50 ratio: MC1R cAMP EC50 divided by MC4R cAMP EC50
T1 construct: expressed in transfected cells
T1 sequence (P32245 whole entry): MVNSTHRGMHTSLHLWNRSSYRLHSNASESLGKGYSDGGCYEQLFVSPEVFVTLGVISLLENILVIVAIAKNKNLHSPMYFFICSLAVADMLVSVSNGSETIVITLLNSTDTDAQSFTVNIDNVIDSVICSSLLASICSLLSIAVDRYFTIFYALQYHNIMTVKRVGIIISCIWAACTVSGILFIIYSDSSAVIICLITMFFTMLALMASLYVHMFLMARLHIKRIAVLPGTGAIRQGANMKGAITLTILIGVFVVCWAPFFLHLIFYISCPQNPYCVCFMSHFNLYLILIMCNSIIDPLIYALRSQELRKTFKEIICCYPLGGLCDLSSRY
How it was run: (§1)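 Stably transfected BHK cells expressing human MC1R or MC4R; cAMP quantified by HTRF (cAMP-d2/cryptate) after 30 min compound stimulation at 25 °C in DMEM-based buffer with 1 mM IBMX. Compounds were prepared as 10-fold serial dilutions starting at 2 μM (working solution, 2× final). Readout after 1 h at 25 °C; non-linear regression.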

[2] = In vivo acute food intake model (BioDAQ) in C57BL/6J male mice; settings: single subcutaneous dose 1 mg/kg, cumulative food intake
Method: The MC4R system is central to appetite regulation and agonists are known inhibit food intake. In order to screen compounds in a relevant in vivo model, efficacy was assessed by determining the effect of the compound on reducing food intake acutely in mice.
All animal protocols were approved by an Institutional Animal Care and Use Committee and Ethical Review Committee of Novo Nordisk. Animals were housed according to Novo Nordisk rodent housing standards, and were given ad libitum access to food and water under controlled lighting (12 h:12 h light/dark cycle; lights off 11:00-23:00), temperature (23±2° C.) and relative humidity (50±20%) conditions. For each acute food intake study C57BL/6J male mice (25-30 grams body weight) were acclimated for two weeks to the appropriate light cycle and to single-housing (one mouse per cage) in cages linked to a BioDAQ automated food intake system (Research Diets Inc., New Brunswick, N.J. USA). The animals were also acclimated to new food (Research Diets 12450B, 10% kcal fat) during this time.
The BioDAQ is a computer automated scientific instrument for Biological Data Acquisition of food intake in rodents and measures food intake from each cage every 15 minutes. A total of 32 animals can be accommodated in the system per study, therefore, animals were randomized into 4 groups of n=8 for each study. […] Animals were fasted ˜4 hr prior to dosing. Vehicle (10 mM phosphate; 140 mM sodium chloride) or compound was dosed at a volume of 10 ml per kg subcutaneously approximately 20 minutes prior to the start of the dark cycle (compound chem no. and dosages are indicated in table 2 below). After dosing, food intake was recorded for approximately 24 hours.
The inhibitory effect of compounds on food intake was generally well-correlated with in vitro binding affinity on the human MC4 receptor and with plasma stability of the compound. Most studies were conducted as dose response studies with vehicle and the compound at 3 doses (0.3, 1 and 3 mg/kg). Some studies were done for the purpose of dose-range finding, while others were done to comparatively assess the effect of 3 compounds at the same dose. Maximal effects on food intake occurred within the first 1-5 hours post-dose. The comparative effect of compounds across studies on food intake was assessed by normalizing measurements as % effect on cumulative food intake after a single subcutaneous dose, relative to vehicle. Results are reported in Table 2 as % effect on food intake at 3 hours post dose.

human MC4R [3] = target: T1, human MC4R; assay: 125NDP-α-MSH competitive binding to membranes of BHK cells expressing human MC4 receptor (filtration assay)
How it was run: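 Displacement of ^125NDP-α-MSH (apx. […] final) was measured by filtration after 2 h at 25 °C, using diluted membranes of stably transfected BHK cells in pH 7.0 HEPES buffer. Compounds spanned 1 μM to 0.001 nM; binding curves were analysed by non-linear regression.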

human MC1R = target: T2, human MC1R (Homo sapiens, UniProt Q01726); assay: Functional cAMP assay (CisBio HTRF) in BHK cells expressing human MC1R; type: cell-based
T2 construct: expressed in transfected cells
T2 sequence (Q01726 whole entry): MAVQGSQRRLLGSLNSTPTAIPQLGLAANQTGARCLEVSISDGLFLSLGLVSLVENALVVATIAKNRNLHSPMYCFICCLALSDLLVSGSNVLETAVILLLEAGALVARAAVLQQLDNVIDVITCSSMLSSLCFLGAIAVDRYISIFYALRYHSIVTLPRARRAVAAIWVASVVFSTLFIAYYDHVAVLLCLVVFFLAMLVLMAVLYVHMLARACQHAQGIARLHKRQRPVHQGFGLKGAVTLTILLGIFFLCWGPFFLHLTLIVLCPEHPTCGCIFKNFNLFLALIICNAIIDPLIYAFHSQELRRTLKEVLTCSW
How it was run: as §1

[4] = human MC4R, BHK cell membranes, 125NDP-α-MSH radioligand, read-out: MC4R binding Ki
[5] = BHK cells expressing human MC4R, '>' = highest dose used with no response, read-out: MC4R cAMP EC50
[6] = BHK cells expressing human MC1R, '>' = highest dose used with no response, read-out: MC1R cAMP EC50

Structure (SMILES)	MC1R/MC4R cAMP EC50 ratio (human MC4R [1])	% Effect on food intake at 3 hours post dose, relative to vehicle [2] [%]	Ki (human MC4R [3]; [4]) [nM]	EC50 (human MC4R [1]; [5]) [nM]	Ki (human MC4R [3]) [nM]	EC50 (human MC4R [1]) [nM]	EC50 (human MC1R) [nM]	EC50 (human MC1R; [6]) [nM]
NCCCC[C@@H]1NC(=O)[C@@H]2CSSC[C@H](NC(=O)[C@H](Cc3c[nH]c4ccccc34)NC(=O)[C@H](Cc3c[nH]cn3)NC(=O)[C@@H](Cc3ccccc3)NC(=O)[C@H](Cc3c[nH]cn3)NC1=O)C(=O)N[C@@H](CCCCN)C(=O)N[C@@H](Cc1c[nH]cn1)C(=O)N[C@H](Cc1ccccc1)C(=O)N[C@@H](Cc1c[nH]cn1)C(=O)N[C@@H](Cc1c[nH]c3ccccc13)C(=O)N2 [Chem. 52, c[c[Cys-Lys-His-D-Phe-His-Trp-Cys]- Lys-His-D-Phe-His-Trp]] (cyclo(CKH[dF]HWCKH[dF]HW); disulfide 1-7)	207	−66 ± 9	–	–	–	–	–	–
C[C@@H]1NC(=O)[C@@H]2CSSC[C@H](NC(=O)[C@H](Cc3c[nH]c4ccccc34)NC(=O)[C@H](CCCCN)NC(=O)[C@H](CCCCN)NC(=O)[C@H](CCCCN)NC1=O)C(=O)N1C[C@H](O)C[C@H]1C(=O)N[C@@H](Cc1c[nH]cn1)C(=O)N[C@H](Cc1ccccc1)C(=O)N[C@@H](Cc1c[nH]cn1)C(=O)N[C@@H](Cc1c[nH]c3ccccc13)C(=O)N2 [Chem. 70, c[c[Cys-Hyp-His-D-Phe-His-Trp-Cys]- Ala-Lys-Lys-Lys-Trp]] (cyclo(AKKKWC[Hyp]H[dF]HWC); disulfide 6-12)	199	−39 ± 10	0.07	0.38	–	–	–	–
C[C@@H]1NC(=O)[C@H](C)NC(=O)[C@@H]2CSSC[C@H](NC(=O)[C@H](CCCNC(=N)N)NC(=O)[C@H](C)NC(=O)[C@@H](C)NC1=O)C(=O)N[C@@H](C)C(=O)N[C@@H](Cc1c[nH]cn1)C(=O)N[C@H](Cc1ccccc1)C(=O)N[C@@H](CCCNC(=N)N)C(=O)N[C@@H](Cc1c[nH]c3ccccc13)C(=O)N2 [Chem. 90, c[c[Cys-Ala-His-D-Phe-Arg-Trp-Cys]- Ala-Ala-D-Ala-Ala-Arg]] (cyclo(AA[dA]ARCAH[dF]RWC); disulfide 6-12)	65	–	–	–	0.11	0.01	0.65	–
C[C@@H]1NC(=O)[C@@H]2CSSC[C@H](NC(=O)[C@H](Cc3c[nH]c4ccccc34)NC(=O)[C@H](CCCCN)NC(=O)[C@H](CCCCN)NC(=O)[C@H](CCCCN)NC1=O)C(=O)N1CCC[C@@H]1C(=O)N[C@@H](Cc1c[nH]cn1)C(=O)N[C@H](Cc1ccccc1)C(=O)N[C@@H](Cc1c[nH]cn1)C(=O)N[C@@H](Cc1c[nH]c3ccccc13)C(=O)N2 [Chem. 98, c[c[Cys-D-Pro-His-D-Phe-His-Trp- Cys]-Ala-Lys-Lys-Lys-Trp]] (cyclo(AKKKWC[dP]H[dF]HWC); disulfide 6-12)	>20	–	0.6	–	–	–	–	> 55
C[C@@H]1NC(=O)[C@@H]2CSSC[C@H](NC(=O)[C@H](CCCNC(=N)N)NC(=O)[C@H](CCCCN)NC(=O)[C@H](CCCCN)NC(=O)[C@H](CCCCN)NC1=O)C(=O)N1CCC[C@H]1C(=O)N[C@@H](Cc1c[nH]cn1)C(=O)N[C@H](Cc1ccccc1)C(=O)N[C@@H](CCCCNC(N)=O)C(=O)N[C@@H](Cc1c[nH]c3ccccc13)C(=O)N2 [Chem. 99, c[c[Cys-Pro-His-D-Phe-Cit-Trp-Cys]- Ala-Lys-Lys-Lys-Arg]] (cyclo(AKKKRCPH[dF][hCit]WC); disulfide 6-12)	14	–	0.1	0.39	–	–	–	5.29
C[C@@H]1NC(=O)[C@@H]2CSSC[C@H](NC(=O)[C@H](Cc3c[nH]c4ccccc34)NC(=O)[C@H](CCCNC(=N)N)NC(=O)[C@@H](Cc3ccccc3)NC(=O)[C@H](Cc3c[nH]cn3)NC1=O)C(=O)N[C@@H](CCCCN)C(=O)N[C@@H](CCCCN)C(=O)N[C@@H](CCCCN)C(=O)N[C@@H](CCCNC(=N)N)C(=O)N2 [Chem. 101, c[c[Cys-Ala-His-D-Phe-Arg-Trp-Cys]- Lys-Lys-Lys-Arg]] (cyclo(AH[dF]RWCKKKRC); disulfide 6-11)	5	–	0.05	0.04	–	–	–	0.19
C[C@@H]1NC(=O)[C@H](CCC(=O)O)NC(=O)[C@H](CCC(=O)O)NC(=O)[C@H](C)NC(=O)[C@@H]2CSSC[C@H](NC(=O)[C@H](Cc3c[nH]c4ccccc34)NC1=O)C(=O)N[C@@H](C)C(=O)N[C@@H](Cc1c[nH]cn1)C(=O)N[C@H](Cc1ccccc1)C(=O)N[C@@H](CCCNC(=N)N)C(=O)N[C@@H](Cc1c[nH]c3ccccc13)C(=O)N2 [Chem. 102, c[c[Cys-Ala-His-D-Phe-Arg-Trp-Cys]- Ala-Glu-Glu-Ala-Trp]] (cyclo(AEEAWCAH[dF]RWC); disulfide 6-12)	29	–	–	–	10.1	0.49	14.3	–
C[C@@H]1NC(=O)[C@@H]2CSSC[C@H](NC(=O)[C@H](Cc3c[nH]c4ccccc34)NC(=O)[C@H](CCCCN)NC(=O)[C@H](CCCCN)NC(=O)[C@H](CCCCN)NC1=O)C(=O)N1COC[C@H]1C(=O)N[C@@H](Cc1c[nH]cn1)C(=O)N[C@H](Cc1ccccc1)C(=O)N[C@@H](Cc1c[nH]cn1)C(=O)N[C@@H](Cc1c[nH]c3ccccc13)C(=O)N2 [Chem. 103, c[c[Cys-OXA-His-D-Phe-His-Trp- Cys]-Ala-Lys-Lys-Lys-Trp]] (cyclo(AKKKWC[Ser(ΨH,HPro)]H[dF]HWC); disulfide 6-12)	>1400	–	0.06	0.05	–	–	–	> 70
C[C@@H]1NC(=O)[C@H](C)NC(=O)[C@@H]2CSSC[C@H](NC(=O)[C@H](Cc3c[nH]c4ccccc34)NC(=O)[C@H](C)NC(=O)[C@H](CCCCN)NC1=O)C(=O)N1CSC[C@H]1C(=O)N[C@@H](Cc1c[nH]cn1)C(=O)N[C@H](Cc1ccccc1)C(=O)N[C@@H](Cc1c[nH]cn1)C(=O)N[C@@H](Cc1c[nH]c3ccccc13)C(=O)N2 [Chem. 109, c[c[Cys-THAZ-His-D-Phe-His-Trp- Cys]-Ala-Ala-Lys-Ala-Trp]] (cyclo(AAKAWC[Thz]H[dF]HWC); disulfide 6-12)	>47	–	–	–	0.3	0.15	> 7	–
C[C@@H]1NC(=O)[C@@H]2CSSC[C@H](NC(=O)[C@H](Cc3c[nH]c4ccccc34)NC(=O)[C@H](CCCNC(=N)N)NC(=O)[C@@H](Cc3ccccc3)NC(=O)[C@H](Cc3c[nH]cn3)NC1=O)C(=O)N1CCC[C@H]1C(=O)N1CCC[C@H]1C(=O)N[C@@H](CCC(=O)O)C(=O)N[C@@H](CCCNC(=N)N)C(=O)N[C@@H](Cc1c[nH]c3ccccc13)C(=O)N2 [Chem. 112, c[c[Cys-Ala-His-D-Phe-Arg-Trp-Cys]- Pro-Pro-Glu-Arg-Trp]] (cyclo(AH[dF]RWCPPERWC); disulfide 6-12)	159	–	1.21	0.19	–	–	–	30.2
C[C@@H]1NC(=O)[C@@H]2CSSC[C@H](NC(=O)[C@H](CCCNC(=N)N)NC(=O)[C@H](CCCN)NC(=O)[C@H](CCC(=O)O)NC(=O)[C@H](Cc3c[nH]cn3)NC1=O)C(=O)N1CSC[C@H]1C(=O)N[C@@H](Cc1c[nH]cn1)C(=O)N[C@H](Cc1ccccc1)C(=O)N[C@@H](Cc1c[nH]cn1)C(=O)N[C@@H](Cc1c[nH]c3ccccc13)C(=O)N2 [Chem. 120, c[c[Cys-THAZ-His-D-Phe-His-Trp- Cys]-Ala-His-Glu-Orn-Arg]] (cyclo(AHE[Orn]RC[Thz]H[dF]HWC); disulfide 6-12)	3673	−28 ± 12	–	–	–	0.08	–	–
